Reference: article PMC7825493, “Characterization of LDD-2633 as a Novel RET Kinase Inhibitor with Anti-Tumor Effects in Thyroid Cancer” (Pharmaceuticals, 2021)
Counter-ions that a name gives are not always drawn.

Molecular target: RET kinase (Homo sapiens, UniProt P07949)
Assay: HTRF KinEASE-TK (TR-FRET) kinase assay with recombinant RET, […] ATP
Assay type: biochemical

RET kinase, sequence (P07949 29-1114): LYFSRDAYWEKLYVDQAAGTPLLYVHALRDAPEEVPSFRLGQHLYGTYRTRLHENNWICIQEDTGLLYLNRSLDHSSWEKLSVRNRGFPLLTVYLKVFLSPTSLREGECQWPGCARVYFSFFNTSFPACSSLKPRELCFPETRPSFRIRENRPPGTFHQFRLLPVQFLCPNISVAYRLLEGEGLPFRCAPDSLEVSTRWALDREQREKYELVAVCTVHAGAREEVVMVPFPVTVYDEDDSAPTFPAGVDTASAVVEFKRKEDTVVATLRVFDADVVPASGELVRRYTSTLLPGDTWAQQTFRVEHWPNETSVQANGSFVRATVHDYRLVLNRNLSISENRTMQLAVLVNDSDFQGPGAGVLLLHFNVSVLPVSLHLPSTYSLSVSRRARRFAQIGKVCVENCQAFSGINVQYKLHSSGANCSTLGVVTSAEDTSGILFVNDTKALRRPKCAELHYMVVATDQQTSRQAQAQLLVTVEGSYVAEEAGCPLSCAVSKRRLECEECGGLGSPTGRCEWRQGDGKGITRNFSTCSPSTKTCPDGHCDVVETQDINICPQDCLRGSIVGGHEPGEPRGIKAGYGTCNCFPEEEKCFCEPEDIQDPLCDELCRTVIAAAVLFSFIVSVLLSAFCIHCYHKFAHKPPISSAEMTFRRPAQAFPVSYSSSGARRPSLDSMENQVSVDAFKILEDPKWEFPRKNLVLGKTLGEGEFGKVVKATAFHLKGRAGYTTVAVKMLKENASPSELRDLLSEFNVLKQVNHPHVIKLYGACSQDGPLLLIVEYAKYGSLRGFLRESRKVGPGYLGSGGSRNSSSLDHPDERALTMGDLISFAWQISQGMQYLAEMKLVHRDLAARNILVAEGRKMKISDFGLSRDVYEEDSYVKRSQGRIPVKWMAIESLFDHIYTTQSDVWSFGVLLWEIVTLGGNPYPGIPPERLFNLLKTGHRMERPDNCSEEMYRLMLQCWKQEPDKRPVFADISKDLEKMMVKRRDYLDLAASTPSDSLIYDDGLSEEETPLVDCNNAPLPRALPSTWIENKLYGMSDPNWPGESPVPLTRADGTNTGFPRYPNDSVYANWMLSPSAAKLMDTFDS

O=C1Nc2ccccc2/C1=C1/Nc2ccccc2/C1=N\OCCN1CCNCC1 [LDD-2633, (2Z,3E)-3-((2-(piperazin-1-yl)ethoxy)imino)-[2,3′-biindolinylidene]-2′-one hydrochloride]
IC50: 4.42 nM
